Source: the supplement of paper PMC10307832

Columns and labels:
Experiment in all cases: relative viability (nuclei count vs DMSO), 5 days (fraction); higher = more cells survive
Neratinib + Palbociclib = compound: CCOc1cc2ncc(C#N)c(Nc3ccc(OCc4ccccn4)c(Cl)c3)c2cc1NC(=O)/C=C/CN(C)C [Neratinib] + CC(=O)c1c(C)c2cnc(Nc3ccc(N4CCNCC4)cn3)nc2n(C2CCCC2)c1=O [Palbociclib] (partner 0.5 µM)
Outline: (§1)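 The day after seeding in 1536-well plates, lung cancer cell lines were treated by pin tool with a single drug, or with a fixed anchor-drug dose together with five library-drug doses (not always all listed) in √10 steps. After 5 days, a combined fix-and-stain solution (final 0.05% Triton X-100, 1% formaldehyde, 1 ug/ml Hoechst) was added. Nuclei counted on 4× images gave relative viability as treated counts over vehicle counts, reported as the median of duplicate plates.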

Neratinib + Phenformin = compound: CCOc1cc2ncc(C#N)c(Nc3ccc(OCc4ccccn4)c(Cl)c3)c2cc1NC(=O)/C=C/CN(C)C [Neratinib] + N=C(N)NC(=N)NCCc1ccccc1 [Phenformin] (partner 250 µM)
Outline: as §1

Neratinib + Pictilisib = compound: CCOc1cc2ncc(C#N)c(Nc3ccc(OCc4ccccn4)c(Cl)c3)c2cc1NC(=O)/C=C/CN(C)C [Neratinib] + CS(=O)(=O)N1CCN(Cc2cc3nc(-c4cccc5[nH]ncc45)nc(N4CCOCC4)c3s2)CC1 [Pictilisib] (partner 1 µM)
Outline: as §1

Neratinib + Decitabine = compound: CCOc1cc2ncc(C#N)c(Nc3ccc(OCc4ccccn4)c(Cl)c3)c2cc1NC(=O)/C=C/CN(C)C [Neratinib] + Nc1ncn([C@H]2C[C@H](O)[C@@H](CO)O2)c(=O)n1 [Decitabine] (partner 2 µM)
Outline: as §1

Row | Cell Line | relative viability (Neratinib + Palbociclib; first compound 0.01 µM) | relative viability (Neratinib + Palbociclib; first compound 0.03162 µM) | relative viability (Neratinib + Palbociclib; first compound 0.1 µM) | relative viability (Neratinib + Palbociclib; first compound 0.3162 µM) | relative viability (Neratinib + Palbociclib; first compound 1 µM) | relative viability (Neratinib + Phenformin; first compound 0.01 µM) | relative viability (Neratinib + Phenformin; first compound 0.03162 µM) | relative viability (Neratinib + Phenformin; first compound 0.1 µM) | relative viability (Neratinib + Phenformin; first compound 0.3162 µM) | relative viability (Neratinib + Phenformin; first compound 1 µM) | relative viability (Neratinib + Pictilisib; first compound 0.01 µM) | relative viability (Neratinib + Pictilisib; first compound 0.03162 µM) | relative viability (Neratinib + Pictilisib; first compound 0.1 µM) | relative viability (Neratinib + Pictilisib; first compound 0.3162 µM) | relative viability (Neratinib + Pictilisib; first compound 1 µM) | relative viability (Neratinib + Decitabine; first compound 0.01 µM) | relative viability (Neratinib + Decitabine; first compound 0.03162 µM) | relative viability (Neratinib + Decitabine; first compound 0.1 µM) | relative viability (Neratinib + Decitabine; first compound 0.3162 µM) | relative viability (Neratinib + Decitabine; first compound 1 µM)
1 | H3255 | 0.304 | 0.324 | 0.305 | 0.256 | 0.201 | 0.311 | 0.28 | 0.242 | 0.222 | 0.246 | 0.453 | 0.469 | 0.301 | 0.117 | 0.109 | 0.548 | 0.471 | 0.454 | 0.218 | 0.245
2 | EPLC-272H | 0.357 | 0.309 | 0.224 | 0.295 | 0.292 |  | 0.309 | 0.317 | 0.235 | 0.157 | 0.376 | 0.387 | 0.316 | 0.338 | 0.307 | 0.407 | 0.444 | 0.332 | 0.331 | 0.344
3 | SW 1573 | 0.382 | 0.422 | 0.428 | 0.289 | 0.217 | 0.431 | 0.466 | 0.384 | 0.311 | 0.185 | 0.523 | 0.586 | 0.399 | 0.508 | 0.249 | 0.466 | 0.628 | 0.574 | 0.507 | 0.265
4 | NCI-H1793 | 0.257 | 0.276 | 0.239 | 0.241 | 0.23 | 0.392 | 0.516 | 0.281 | 0.273 | 0.255 | 0.31 | 0.361 | 0.319 | 0.339 | 0.275 | 0.521 | 0.455 |  | 0.383 | 0.266
5 | EKVX | 0.384 | 0.448 | 0.243 | 0.132 | 0.152 | 0.241 | 0.244 | 0.226 | 0.206 | 0.132 | 0.476 | 0.387 | 0.32 | 0.163 | 0.129 | 0.339 | 0.351 | 0.324 | 0.197 | 0.16
6 | ChaGo-K-1 | 0.997 | 0.986 | 0.93 | 0.956 | 0.867 | 0.466 | 0.518 | 0.482 | 0.432 | 0.401 | 0.668 | 0.781 | 0.689 | 0.639 | 0.614 | 0.517 | 0.581 | 0.517 | 0.526 | 0.534
7 | NCI-H2347 | 0.401 | 0.41 | 0.341 | 0.494 | 0.479 | 0.416 | 0.565 |  | 0.338 | 0.244 | 0.603 | 0.547 | 0.503 | 0.582 | 0.524 | 0.679 | 0.606 |  | 0.545 | 0.633
8 | EMC-BAC-2 | 0.538 | 0.526 | 0.492 | 0.532 | 0.41 | 0.586 | 0.554 | 0.505 | 0.451 | 0.377 | 0.584 | 0.558 | 0.443 | 0.468 | 0.371 | 1.12 | 1 | 0.942 | 0.988 | 0.929
9 | LOU-NH91 | 0.504 | 0.547 | 0.557 | 0.462 | 0.536 | 0.664 | 0.634 | 0.525 | 0.426 | 0.412 | 0.53 | 0.496 | 0.483 | 0.484 | 0.469 | 0.794 | 0.775 | 0.68 | 0.673 | 0.604
10 | LU99A | 0.377 | 0.434 | 0.356 | 0.385 | 0.329 | 0.92 | 0.905 | 0.87 | 0.801 | 0.683 | 0.31 | 0.311 | 0.285 | 0.263 | 0.207 |  | 1.12 | 0.752 | 0.952 | 0.578
11 | NCI-H1395 | 0.66 | 0.709 | 0.63 | 0.58 | 0.414 | 0.461 | 0.484 | 0.462 | 0.428 | 0.388 | 0.595 | 0.679 | 0.602 | 0.659 | 0.449 | 0.681 | 0.807 | 0.749 | 0.769 | 0.559
12 | NCI-H520 | 0.191 | 0.242 |  | 0.213 | 0.183 | 0.599 | 0.78 | 0.53 | 0.496 | 0.287 | 0.297 | 0.377 | 0.222 | 0.215 | 0.188 | 0.604 | 0.547 |  |  | 0.46
13 | 201T | 0.361 | 0.351 | 0.343 | 0.321 | 0.335 | 0.484 | 0.424 | 0.44 | 0.379 | 0.42 | 0.728 | 0.727 | 0.667 | 0.662 | 0.756 | 0.858 | 0.857 |  | 0.853 | 0.84
14 | NCI-H1944 | 0.365 | 0.32 | 0.264 | 0.241 | 0.247 | 0.237 | 0.202 | 0.192 | 0.176 | 0.174 | 0.387 | 0.341 | 0.193 | 0.31 | 0.266 | 0.458 | 0.482 | 0.423 | 0.389 | 0.39
15 | NCI-H3122 | 0.205 | 0.208 | 0.188 | 0.181 | 0.148 | 0.366 | 0.407 | 0.317 | 0.35 | 0.187 | 0.634 | 0.589 | 0.474 | 0.619 | 0.214 | 0.365 | 0.544 | 0.488 | 0.457 | 0.364
16 | NCI-H1703 |  |  |  |  |  |  |  |  |  |  | 0.23 | 0.224 | 0.244 | 0.201 | 0.212 |  |  |  |  | 
17 | NCI-H1755 | 0.457 | 0.463 | 0.33 | 0.456 | 0.432 | 0.641 | 0.657 | 0.535 | 0.593 | 0.577 | 0.475 | 0.455 | 0.407 | 0.36 | 0.209 | 0.728 | 0.715 | 0.718 | 0.805 | 0.858
